# Where two headings read alike, the source gives them in different places.
# Experiments:
# [1] = system: HIV-192UG029 (subtype A, X4); experiment: p24 production inhibition in PHA-PBMC; type: cell-based, HIV-1; conditions: Human immunodeficiency virus 1, read-out: EC50 HIV-192UG029 (subtype A, X4)
# Method: (§1) The susceptibility of HIV-1LAI or HIV-2ROD to various compounds was determined as previously described[20]–[22]. Briefly, MT-2 cells (10^4/ml) were exposed to 100 TCID50 of HIV-1LAI or HIV-2ROD in the presence or absence of various concentrations of compounds in 96-well plates and were incubated at 37 °C for 7 days. After incubation, 100 μl of the medium was removed from each well, 3-(4,5-dimetylthiazol-2-yl)-2,5-diphenyltetrazolium bromide (MTT) solution (10 μl, 7.5 mg/ml in PBS) was added to each well, followed by incubation at 37 °C for 2 h. […] To determine the sensitivity of clinically isolated HIV-1s to compounds, PHA-PBMC (10^6/ml) were exposed to 50 TCID50 of each HIV-1 and cultured in the presence or absence of various concentrations of compounds in 10-fold serial dilutions in 96-well plates. In determining the drug-susceptibility of certain laboratory HIV-1 strains, MT-4 cells were employed as target cells as previously described[23],[24]. MT-4 cells (10^5/ml) were exposed to 100 TCID50 of drug-resistant HIV-1s in the presence or absence of various concentrations of compounds and were incubated at 37 °C. On day 7, the supernatants were harvested and the amounts of p24 were determined by using a fully-automated chemiluminescent enzyme immunoassay system (Lumipulse f: Fujirebio, Tokyo)[35]–[37]. […] All assays were performed in duplicate, and EC50 shown in this report represent average values of two to four independent experiments. PHA-PBMCs were derived from a single donor in each independent experiment. The research protocols described in the present study were carried out in accordance with relevant guidelines and regulations, and were approved in Ethics Committee for Epidemiological and General Research at the Faculty of Life Sciences, Kumamoto University.
# HIV-2ROD = experiment: microbe, parasite or virus in culture; type: cell-based; conditions: Human immunodeficiency virus 2, MT2, MT-2 cells, 100 TCID50, MTT assay; read-out: EC50 Against HIV-2ROD
# Method: as §1
# HIV-1LAI = experiment: microbe, parasite or virus in culture; type: cell-based; conditions: Human immunodeficiency virus 1, MT2, MT-2 cells, 100 TCID50, MTT assay; read-out: EC50 Against HIV-1LAI
# Method: as §1
# HIV-1MDR/G [2] = experiment: p24 production inhibition in PHA-PBMC; type: cell-based; conditions: Human immunodeficiency virus 1, PHA-PBMC, p24 Gag production
# Method: as §1
# HIV-1MDRmix DRV ^R 20P [3] = experiment: p24 production inhibition in PHA-PBMC; type: cell-based; conditions: Human immunodeficiency virus 1, read-out: EC50 HIV-1MDRmix DRV ^R 20P, PHA-PBMC, p24 Gag production
# Method: as §1
# [4] = system: HIV-1ERS104pre (wild-type); experiment: p24 production inhibition in PHA-PBMC; type: cell-based; conditions: Human immunodeficiency virus 1, PHA-PBMC, p24 Gag production
# Method: as §1
# HIV-1BaL (subtype B, R5) = experiment: p24 production inhibition in PHA-PBMC; type: cell-based; conditions: Human immunodeficiency virus 1, PHA-PBMC, p24 Gag production
# Method: as §1
# [5] = system: HIV-1ME46 (subtype B, X4/R5); experiment: p24 production inhibition in PHA-PBMC; type: cell-based; conditions: Human immunodeficiency virus 1, PHA-PBMC, p24 Gag production
# Method: as §1
# [6] = Cytotoxicity against MT-2 cells (MTT assay); type: cell-based; conditions: human
# Method: as §1
# HIV-1NL4-3 [7] = experiment: p24 production inhibition in MT-4 cells; type: cell-based; conditions: Human immunodeficiency virus 1, MT4, MT-4 cells, p24 Gag production, Table 3
# Method: as §1
# HIV-1APV ^R 5μM [8] = experiment: p24 production inhibition in MT-4 cells; type: cell-based; conditions: Human immunodeficiency virus 1, MT4, read-out: EC50 HIV-1APV ^R 5μM, MT-4 cells, p24 Gag production
# Method: as §1
# HIV-1ATV ^R 5μM = experiment: p24 production inhibition in MT-4 cells; type: cell-based; conditions: Human immunodeficiency virus 1, MT4, read-out: EC50 HIV-1ATV ^R 5μM, MT-4 cells, p24 Gag production
# Method: as §1
# HIV-1LPV ^R 5μM = experiment: p24 production inhibition in MT-4 cells; type: cell-based; conditions: Human immunodeficiency virus 1, MT4, read-out: EC50 HIV-1LPV ^R 5μM, MT-4 cells, p24 Gag production
# Method: as §1
# HIV-1_9510 ^R 36P = experiment: p24 production inhibition in MT-4 cells; type: cell-based; conditions: Human immunodeficiency virus 1, MT4, read-out: EC50 HIV-19510RP36
# Method: as §1
# HIV-1NL4-3 [9] = conditions: MT-4 cells, p24 assay, previously reported; and 22; cited from earlier work
# HIV-1MDR/G [10] = system: HIV-1MDR/G; parameters: method as in earlier work; conditions: and 22, cited from earlier work
# HIV-1MDRmix DRV ^R 20P [11] = conditions: cited from earlier work
# HIV-1APV ^R 5μM [12] = system: HIV-1APV ^R 5μM; parameters: method as in earlier work; conditions: and 22, cited from earlier work
# [13] = system: HIV-1ERS104pre (wild-type); conditions: PHA-PBMs, p24 assay, previously reported; and 22; read-out: EC50 HIV-1WT/ERS104pre; cited from earlier work
# [14] = compared to HIV-1WT/ERS104pre, previously reported data
compound,measurement,setting,value
"CC(C)CN(C[C@@H](O)[C@H](Cc1ccccc1)NC(=O)O[C@H]1CO[C@H]2OCC[C@H]21)S(=O)(=O)c1ccc(N)cc1 [DRV, Darunavir]",EC50,[1],5.5 ± 0.1 nM
same,EC50,HIV-2ROD,14 ± 7 nM
same,EC50,HIV-1LAI,5 ± 2 nM
same,EC50,HIV-1MDR/G [2],20 ± 9 nM
same,EC50,HIV-1MDRmix DRV ^R 20P [3],300 ± 60 nM
same,EC50,[4],4.4 ± 0.9 nM
same,EC50,"HIV-1BaL (subtype B, R5)",1.8 ± 0.1 nM
same,EC50,[5],2.3 ± 0.4 nM
same,CC50 at 7 days,[6],101000 ± 8800 nM
same,EC50,HIV-1NL4-3 [7],4.5 ± 0.4 nM
same,EC50,HIV-1APV ^R 5μM [8],410 ± 10 nM
same,EC50,HIV-1ATV ^R 5μM,24 ± 60 nM
same,EC50,HIV-1LPV ^R 5μM,34 ± 5 nM
same,EC50,HIV-1_9510 ^R 36P,41 ± 1 nM
COc1ccc(S(=O)(=O)N(CC(C)C)C[C@@H](O)[C@H](Cc2ccccc2)NC(=O)O[C@H]2CO[C@H]3O[C@@H]4OCC[C@@H]4[C@H]32)cc1 [GRL-0519],EC50,HIV-1NL4-3 [9],0.5 ± 0.1 nM
same,EC50,"HIV-1MDR/G [10]; PHA-PBMs, p24 assay, previously reported",2.6 ± 1.3 nM
same,fold change in EC50 HIV-1MDR/G,HIV-1MDR/G [10]; [14],4
same,EC50,"HIV-1MDRmix DRV ^R 20P [11]; PHA-PBMs, p24 assay, previously reported, read-out: EC50 HIV-1MDRmixDRVR20P",30 ± 9.8 nM
same,fold change in EC50 HIV-1MDRmixDRVR20P,HIV-1MDRmix DRV ^R 20P [11]; [14],50
same,EC50,"HIV-1APV ^R 5μM [12]; MT-4 cells, p24 assay, previously reported, read-out: EC50 HIV-1APVR5M",38 ± 0.9 nM
same,fold change in EC50 HIV-1APVR5M,"HIV-1APV ^R 5μM [12]; compared to HIV-1NL4-3, previously reported data",76
same,EC50,[13],0.6 ± 0.2 nM

# From publication PMC5613016, “GRL-09510, a Unique P2-Crown-Tetrahydrofuranylurethane -Containing HIV-1 Protease Inhibitor, Maintains Its Favorable Antiviral Activity against Highly-Drug-Resistant HIV-1 Variants in vitro” (Scientific Reports, 2017)
